Data published in patent US7189751B2, “Oxa(thia)zolidine compounds, process for preparation thereof and anti-inflammatory agents” (Nippon Soda Co., Ltd., priority 2001, dated 2007).

Test system: Mouse Ear Edema Induced by TPA
Experiment: Mouse ear edema induced by TPA
Assay type: in vivo
Conditions: topical, 0.3 mg/20 μL/ear × 2; ICR male mouse; 6 hours after TPA
Protocol: Pharmacological Test Example 2: Mouse Ear Edema Induced by TPA
This test was carried out referring to the method of Carlson, R. P. et al. (Agents and Actions, 17(2): 197–204 (1985).) and the method of Chang, J. (European Journal of Pharmacology, 142: 197–205 (1987).). More specifically, 5 μg/20 μL of TPA (Sigma Chemical Co.), dissolved with ethanol, was topically applied to the anterior and posterior surfaces of the right ear of an ICR-strain male mouse (6–7 weeks old). 6 hours later, the thickness of each ear at the particular part was respectively measured three times using a digimatic micrometer to calculate the mean value. Ear edema was determined by subtracting the mean thickness of the left ear as without treatment from that of the right ear as TPA-applied. Topical application activity was evaluated by applying an acetone solution of the compound of the present invention or 0.1% Tween 80/acetone solution thereof similarly to the anterior and posterior surfaces of the right ear 30 min. before and 15 min. after the TPA-application. […] Oral administration activity was evaluated by administrating 0.2% Tween 80 suspension of the compound of the present invention forcibly and perorally to the mouse an hour prior to the TPA-application. As the positive control, 100 mg/kg of Hydrocortisone (Sigma Chemical Co., H 4001) suspension was applied to the mouse similarly as for the compound of the present invention.

SMILES: CCOC(=O)C(=C1N[C@@H](C)[C@H](c2ccc(Cl)cc2)S1)[N+](=O)[O-] (relative stereo) [Compound 2-29, Trans-5-(4-chlorophenyl)-4-methyl-2-(1-ethoxycarbonyl-1-nitromethylene)-thiazolidine]
- Ear Edema Inhibition (%): 78.6%
